Results from ChEMBL document CHEMBL5465560, “Selectivity Literature for EUbOPEN Chemogenomic Library” (2024).

Experiments:
[1] = target: Cyclin-dependent kinase 18 (Homo sapiens) (UniProt Q07002); assay: Selectivity interaction (KinomeScan (DiscoverX)) EUB0000595a CDK18; details: at 10 µM
[2] = target: T1, Phosphorylase b kinase gamma catalytic chain, liver/testis isoform (Homo sapiens) (UniProt P15735); assay: Selectivity interaction (KinomeScan (DiscoverX)) EUB0000045b PHKG2
T1 sequence (whole entry): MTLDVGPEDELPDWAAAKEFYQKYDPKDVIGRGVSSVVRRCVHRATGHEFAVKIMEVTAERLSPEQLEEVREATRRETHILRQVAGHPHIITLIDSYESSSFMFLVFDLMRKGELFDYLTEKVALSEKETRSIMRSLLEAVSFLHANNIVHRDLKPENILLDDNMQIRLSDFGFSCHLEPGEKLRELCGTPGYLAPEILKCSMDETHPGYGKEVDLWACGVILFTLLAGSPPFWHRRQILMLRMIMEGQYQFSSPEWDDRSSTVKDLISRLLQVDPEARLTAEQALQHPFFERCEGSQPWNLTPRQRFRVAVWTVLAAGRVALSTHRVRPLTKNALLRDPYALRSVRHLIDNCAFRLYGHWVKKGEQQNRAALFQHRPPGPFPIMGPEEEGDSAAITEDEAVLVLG

[3] = target: 1-phosphatidylinositol 3-phosphate 5-kinase (Homo sapiens) (UniProt Q9Y2I7); assay: Selectivity interaction (KinomeScan (DiscoverX)) EUB0001079a PIKFYVE; details: at 1 µM
Chain of 1-phosphatidylinositol 3-phosphate 5-kinase (Homo sapiens) (Q9Y2I7 whole entry, canonical isoform): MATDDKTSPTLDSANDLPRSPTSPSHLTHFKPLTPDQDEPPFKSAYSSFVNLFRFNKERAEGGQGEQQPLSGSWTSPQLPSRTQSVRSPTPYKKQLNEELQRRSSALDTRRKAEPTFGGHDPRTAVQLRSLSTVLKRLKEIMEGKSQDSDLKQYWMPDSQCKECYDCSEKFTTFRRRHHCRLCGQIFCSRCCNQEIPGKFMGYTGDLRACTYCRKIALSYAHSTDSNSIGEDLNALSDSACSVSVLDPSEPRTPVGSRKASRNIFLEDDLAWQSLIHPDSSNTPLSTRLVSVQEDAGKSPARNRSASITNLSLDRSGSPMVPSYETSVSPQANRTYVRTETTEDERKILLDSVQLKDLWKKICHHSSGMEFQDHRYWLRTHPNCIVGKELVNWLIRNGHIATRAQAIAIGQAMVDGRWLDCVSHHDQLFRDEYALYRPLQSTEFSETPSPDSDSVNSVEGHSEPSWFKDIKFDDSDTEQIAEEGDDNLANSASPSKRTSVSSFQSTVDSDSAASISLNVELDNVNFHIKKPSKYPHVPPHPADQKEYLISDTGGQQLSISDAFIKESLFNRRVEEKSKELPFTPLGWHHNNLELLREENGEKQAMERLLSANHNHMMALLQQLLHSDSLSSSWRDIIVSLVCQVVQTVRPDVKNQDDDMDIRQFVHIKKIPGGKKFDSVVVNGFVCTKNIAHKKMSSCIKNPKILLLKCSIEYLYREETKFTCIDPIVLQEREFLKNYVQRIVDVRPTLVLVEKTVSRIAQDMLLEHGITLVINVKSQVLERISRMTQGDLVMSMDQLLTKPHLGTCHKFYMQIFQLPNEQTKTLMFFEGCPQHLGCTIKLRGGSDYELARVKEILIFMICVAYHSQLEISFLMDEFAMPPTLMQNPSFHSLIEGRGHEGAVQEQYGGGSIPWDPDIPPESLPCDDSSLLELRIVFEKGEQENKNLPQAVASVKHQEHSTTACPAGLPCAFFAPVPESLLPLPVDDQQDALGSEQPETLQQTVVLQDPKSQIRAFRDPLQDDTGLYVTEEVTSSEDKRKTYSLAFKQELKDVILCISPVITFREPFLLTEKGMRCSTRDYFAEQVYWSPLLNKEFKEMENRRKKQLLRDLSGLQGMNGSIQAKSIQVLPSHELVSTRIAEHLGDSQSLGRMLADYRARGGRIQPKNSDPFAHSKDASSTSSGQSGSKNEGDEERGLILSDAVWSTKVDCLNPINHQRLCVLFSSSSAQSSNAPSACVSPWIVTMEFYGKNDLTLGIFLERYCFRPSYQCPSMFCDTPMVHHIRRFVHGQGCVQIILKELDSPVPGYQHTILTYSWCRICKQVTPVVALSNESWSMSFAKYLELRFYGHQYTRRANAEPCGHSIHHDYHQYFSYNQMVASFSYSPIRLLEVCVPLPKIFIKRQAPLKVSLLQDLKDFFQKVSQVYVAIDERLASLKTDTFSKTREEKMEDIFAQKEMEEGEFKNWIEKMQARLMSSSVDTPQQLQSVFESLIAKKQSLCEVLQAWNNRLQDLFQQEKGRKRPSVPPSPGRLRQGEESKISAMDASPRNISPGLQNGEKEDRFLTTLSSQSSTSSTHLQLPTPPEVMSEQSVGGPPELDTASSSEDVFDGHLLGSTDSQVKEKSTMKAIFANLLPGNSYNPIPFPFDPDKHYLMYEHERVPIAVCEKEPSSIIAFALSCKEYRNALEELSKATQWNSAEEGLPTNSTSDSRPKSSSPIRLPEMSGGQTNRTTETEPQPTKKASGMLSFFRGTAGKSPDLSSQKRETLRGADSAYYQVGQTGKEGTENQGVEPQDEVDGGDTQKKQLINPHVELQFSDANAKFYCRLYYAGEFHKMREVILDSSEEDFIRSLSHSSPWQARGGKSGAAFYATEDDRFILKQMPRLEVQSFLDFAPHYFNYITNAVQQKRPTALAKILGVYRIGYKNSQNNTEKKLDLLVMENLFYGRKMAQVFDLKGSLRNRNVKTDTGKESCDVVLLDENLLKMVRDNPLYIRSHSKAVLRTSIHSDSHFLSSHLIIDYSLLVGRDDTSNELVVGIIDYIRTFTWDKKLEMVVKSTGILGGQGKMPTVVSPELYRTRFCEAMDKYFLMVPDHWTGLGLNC

[4] = target: Casein kinase I isoform alpha (Homo sapiens, UniProt P48729); assay: Selectivity interaction (KinomeScan (DiscoverX)) EUB0000666a CSNK1A1; details: at 10 µM
Chain of Casein kinase I isoform alpha (P48729 2-337 limits assumed): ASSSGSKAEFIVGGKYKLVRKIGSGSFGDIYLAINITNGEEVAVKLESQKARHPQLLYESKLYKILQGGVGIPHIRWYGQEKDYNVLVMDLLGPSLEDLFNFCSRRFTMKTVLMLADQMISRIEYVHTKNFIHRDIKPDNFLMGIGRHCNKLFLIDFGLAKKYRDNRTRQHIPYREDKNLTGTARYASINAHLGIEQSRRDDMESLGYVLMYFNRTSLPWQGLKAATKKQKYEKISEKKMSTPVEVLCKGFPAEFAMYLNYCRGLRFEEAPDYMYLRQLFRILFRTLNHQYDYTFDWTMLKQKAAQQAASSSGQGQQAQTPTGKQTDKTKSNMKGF

[5] = target: Rho-associated protein kinase 2 (Homo sapiens, UniProt O75116); assay: Selectivity interaction (Kinase screening (Upstate/Millipore)) EUB0000604a ROCK2
Chain of Rho-associated protein kinase 2 (O75116 whole entry, looked up): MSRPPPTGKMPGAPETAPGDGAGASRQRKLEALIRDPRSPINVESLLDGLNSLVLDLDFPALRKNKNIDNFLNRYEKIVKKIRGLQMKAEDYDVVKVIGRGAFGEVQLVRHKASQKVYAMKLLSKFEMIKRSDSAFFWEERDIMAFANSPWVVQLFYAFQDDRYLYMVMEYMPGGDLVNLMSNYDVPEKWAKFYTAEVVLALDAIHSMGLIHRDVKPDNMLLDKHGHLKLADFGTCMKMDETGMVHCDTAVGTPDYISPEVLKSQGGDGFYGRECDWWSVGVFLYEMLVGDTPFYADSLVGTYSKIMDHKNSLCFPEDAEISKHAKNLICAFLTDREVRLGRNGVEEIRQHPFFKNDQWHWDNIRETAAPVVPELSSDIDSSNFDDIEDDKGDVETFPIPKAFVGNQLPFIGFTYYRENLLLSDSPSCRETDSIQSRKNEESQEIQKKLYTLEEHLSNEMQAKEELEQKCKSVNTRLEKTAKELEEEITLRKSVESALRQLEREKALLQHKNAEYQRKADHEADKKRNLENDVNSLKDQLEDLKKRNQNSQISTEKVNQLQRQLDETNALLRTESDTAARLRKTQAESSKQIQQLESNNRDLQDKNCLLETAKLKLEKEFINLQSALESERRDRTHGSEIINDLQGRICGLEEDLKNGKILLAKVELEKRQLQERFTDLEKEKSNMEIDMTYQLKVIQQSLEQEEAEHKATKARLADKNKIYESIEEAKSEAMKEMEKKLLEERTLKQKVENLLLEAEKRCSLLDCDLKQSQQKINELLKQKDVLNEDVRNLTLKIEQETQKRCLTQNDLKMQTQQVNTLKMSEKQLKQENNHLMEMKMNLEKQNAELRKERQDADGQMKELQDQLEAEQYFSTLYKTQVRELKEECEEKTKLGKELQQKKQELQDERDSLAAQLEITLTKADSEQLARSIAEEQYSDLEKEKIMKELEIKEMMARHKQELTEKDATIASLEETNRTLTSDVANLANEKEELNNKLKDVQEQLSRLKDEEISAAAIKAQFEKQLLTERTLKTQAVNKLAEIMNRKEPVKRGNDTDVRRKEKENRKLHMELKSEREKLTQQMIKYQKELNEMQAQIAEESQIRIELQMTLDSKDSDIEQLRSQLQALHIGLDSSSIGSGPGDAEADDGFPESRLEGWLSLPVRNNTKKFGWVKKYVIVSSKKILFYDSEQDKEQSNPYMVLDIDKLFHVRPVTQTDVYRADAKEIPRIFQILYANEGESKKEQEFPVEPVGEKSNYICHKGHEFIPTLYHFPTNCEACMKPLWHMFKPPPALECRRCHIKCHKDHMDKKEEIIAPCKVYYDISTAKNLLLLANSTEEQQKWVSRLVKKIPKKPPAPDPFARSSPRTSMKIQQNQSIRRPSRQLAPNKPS

[6] = target: T2, Interleukin-1 receptor-associated kinase 3 (Homo sapiens) (UniProt Q9Y616); assay: Selectivity interaction (KinomeScan (DiscoverX)) EUB0001550a IRAK3; details: at 1 µM
T2 sequence (whole entry): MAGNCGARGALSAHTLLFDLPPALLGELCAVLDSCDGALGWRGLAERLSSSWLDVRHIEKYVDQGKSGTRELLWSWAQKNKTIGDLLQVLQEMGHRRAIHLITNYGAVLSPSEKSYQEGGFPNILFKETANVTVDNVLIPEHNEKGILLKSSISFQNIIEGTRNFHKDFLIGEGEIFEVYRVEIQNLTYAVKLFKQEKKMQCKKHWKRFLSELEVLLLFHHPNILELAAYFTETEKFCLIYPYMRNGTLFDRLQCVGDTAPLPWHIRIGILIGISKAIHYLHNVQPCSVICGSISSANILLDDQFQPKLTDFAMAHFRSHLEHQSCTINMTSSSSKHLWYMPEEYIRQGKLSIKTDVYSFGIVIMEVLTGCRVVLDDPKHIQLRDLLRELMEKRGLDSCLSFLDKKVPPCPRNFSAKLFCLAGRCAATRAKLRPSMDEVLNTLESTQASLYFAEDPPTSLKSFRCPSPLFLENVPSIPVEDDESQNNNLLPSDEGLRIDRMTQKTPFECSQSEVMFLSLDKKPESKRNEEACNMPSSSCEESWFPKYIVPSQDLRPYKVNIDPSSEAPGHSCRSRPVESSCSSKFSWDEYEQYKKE

[7] = target: Ribosomal protein S6 kinase alpha-3 (Homo sapiens, UniProt P51812); assay: Selectivity interaction (ProQinase) EUB0000171b RPS6KA3
Chain of Ribosomal protein S6 kinase alpha-3 (P51812 whole entry): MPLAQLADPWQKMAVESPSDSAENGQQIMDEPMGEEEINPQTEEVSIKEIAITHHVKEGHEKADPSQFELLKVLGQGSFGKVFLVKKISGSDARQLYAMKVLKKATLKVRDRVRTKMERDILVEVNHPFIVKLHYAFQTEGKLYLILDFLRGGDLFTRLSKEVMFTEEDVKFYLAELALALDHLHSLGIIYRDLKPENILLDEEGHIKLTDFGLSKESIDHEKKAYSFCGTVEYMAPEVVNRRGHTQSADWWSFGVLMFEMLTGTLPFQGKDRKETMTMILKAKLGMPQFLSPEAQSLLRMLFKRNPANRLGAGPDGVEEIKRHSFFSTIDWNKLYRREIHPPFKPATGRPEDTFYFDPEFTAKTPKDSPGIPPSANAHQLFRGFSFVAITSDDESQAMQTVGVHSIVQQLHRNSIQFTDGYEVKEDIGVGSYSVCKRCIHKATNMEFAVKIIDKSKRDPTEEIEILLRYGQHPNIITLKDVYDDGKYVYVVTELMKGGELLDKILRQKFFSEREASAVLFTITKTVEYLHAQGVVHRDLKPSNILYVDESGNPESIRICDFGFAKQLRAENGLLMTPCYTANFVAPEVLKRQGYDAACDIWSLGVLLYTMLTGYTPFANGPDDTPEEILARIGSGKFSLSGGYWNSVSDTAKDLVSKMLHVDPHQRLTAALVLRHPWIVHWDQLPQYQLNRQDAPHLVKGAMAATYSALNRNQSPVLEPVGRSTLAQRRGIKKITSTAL

[8] = target: Cyclin-dependent kinase 15 (Homo sapiens) (UniProt Q96Q40); assay: Selectivity interaction (KinomeScan (DiscoverX)) EUB0000618a CDK15; details: at 10 µM
Chain of Cyclin-dependent kinase 15 (Homo sapiens) (Q96Q40 whole entry): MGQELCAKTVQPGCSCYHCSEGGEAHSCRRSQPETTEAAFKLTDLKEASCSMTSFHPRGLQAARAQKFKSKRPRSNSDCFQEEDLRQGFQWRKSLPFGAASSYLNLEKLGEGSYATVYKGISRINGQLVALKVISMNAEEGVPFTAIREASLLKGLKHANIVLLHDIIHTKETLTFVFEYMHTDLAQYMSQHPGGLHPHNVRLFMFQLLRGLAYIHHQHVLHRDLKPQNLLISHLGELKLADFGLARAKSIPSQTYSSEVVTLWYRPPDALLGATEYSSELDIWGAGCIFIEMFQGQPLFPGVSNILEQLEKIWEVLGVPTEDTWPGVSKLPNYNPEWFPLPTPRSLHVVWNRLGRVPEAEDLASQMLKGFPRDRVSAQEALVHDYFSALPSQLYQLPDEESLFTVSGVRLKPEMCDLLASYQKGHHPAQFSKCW

[9] = target: T3, Cyclin-dependent kinase-like 5 (Homo sapiens) (UniProt O76039); assay: Selectivity interaction (KinomeScan (DiscoverX)) EUB0000618a CDKL5; details: at 10 µM
T3 sequence (whole entry): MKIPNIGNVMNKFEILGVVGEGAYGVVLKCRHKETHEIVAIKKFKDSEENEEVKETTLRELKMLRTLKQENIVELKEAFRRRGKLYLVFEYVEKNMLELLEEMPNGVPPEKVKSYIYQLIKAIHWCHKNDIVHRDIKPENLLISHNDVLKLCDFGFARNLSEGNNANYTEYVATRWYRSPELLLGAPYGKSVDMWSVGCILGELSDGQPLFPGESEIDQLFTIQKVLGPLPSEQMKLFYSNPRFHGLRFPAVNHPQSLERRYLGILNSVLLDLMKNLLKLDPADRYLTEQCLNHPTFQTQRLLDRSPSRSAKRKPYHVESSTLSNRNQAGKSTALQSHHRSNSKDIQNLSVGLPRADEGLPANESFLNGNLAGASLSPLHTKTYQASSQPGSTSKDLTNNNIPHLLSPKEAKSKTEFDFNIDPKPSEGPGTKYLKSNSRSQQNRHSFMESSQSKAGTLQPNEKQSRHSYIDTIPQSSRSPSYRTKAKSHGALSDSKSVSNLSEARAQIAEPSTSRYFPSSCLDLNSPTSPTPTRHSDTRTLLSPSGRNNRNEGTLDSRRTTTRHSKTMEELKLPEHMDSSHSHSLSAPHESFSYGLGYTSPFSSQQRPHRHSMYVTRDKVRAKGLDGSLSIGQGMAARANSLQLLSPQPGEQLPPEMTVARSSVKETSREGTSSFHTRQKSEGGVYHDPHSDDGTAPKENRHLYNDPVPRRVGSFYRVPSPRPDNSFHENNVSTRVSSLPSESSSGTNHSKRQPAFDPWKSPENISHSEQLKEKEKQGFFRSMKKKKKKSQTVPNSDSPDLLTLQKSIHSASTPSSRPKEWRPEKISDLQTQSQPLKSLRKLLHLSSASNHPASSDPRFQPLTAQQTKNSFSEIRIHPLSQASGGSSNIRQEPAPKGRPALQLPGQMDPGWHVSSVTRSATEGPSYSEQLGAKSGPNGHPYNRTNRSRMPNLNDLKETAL

[10] = target: Serine/threonine-protein kinase 38 (Homo sapiens) (UniProt Q15208); assay: Selectivity interaction (ActivX KiNativ screen (kinase selectivity in THP-1 cell lysates)) EUB0000639a STK38; type: subcellular; details: lysate, at 0.04 µM
[11] = target: Mast/stem cell growth factor receptor Kit (Homo sapiens, UniProt P10721); details: at 10 µM

Compound: COCC(=O)NC/C=C/c1ccc2ncnc(Nc3ccc(Oc4ccc(C)nc4)c(C)c3)c2c1 [CP-724714]
- % of control [1]: 99%

Compound: C=CC(=O)Nc1cc(-n2c(=O)ccc3cnc4ccc(-c5ccc(NS(C)(=O)=O)cc5)cc4c32)ccc1C
- % of control ([2]; at 1 µM): 74%
- % of control ([2]; at 10 µM): 88%

Compound: Nc1cnc(N2CCc3cc(S(=O)(=O)Nc4c(F)cc(Cl)cc4F)cc(N4CCCC4=O)c32)nc1 [TP-020n]
- % of control [3]: 100%

Compound: O=C(NOC[C@H](O)CO)c1ccc(F)c(F)c1Nc1ccc(I)cc1F
- % of control [4]: 100%

Compound: Cc1cnc(Nc2ccc(F)cc2Cl)nc1-c1c[nH]c(C(=O)N[C@H](CO)c2cccc(Cl)c2)c1
- % of inhibition [5]: 57%

Compound: CN(C)CC#Cc1ccc2[nH]c3c(c2c1)-c1nc(N)ncc1CCC3
- % of control [6]: 9.2%

Compound: C=CC(=O)Nc1cccc(C(=O)Nc2ccc(Nc3cc(-c4[nH]c(SC)nc4C)ccn3)cc2)c1
- % of control ([7]; at 1 µM): 81%
- % of control ([7]; at 5 µM): 58%

Compound: O[C@H]1CC[C@H](Nc2ncc3nc(Nc4c(F)cc(F)cc4F)n([C@H]4CCOC4)c3n2)CC1
- % of control [8]: 100%
- % of control [9]: 100%

Compound: CC[C@@H]1[C@H](F)C(=O)N[C@@H]1COc1nccc2cc(C(N)=O)c(OC)cc12 [ZIMLOVISERTIB]
- % of inhibition [10]: -3.9%

Compound: CCN(CC)CCCCNc1ncc2cc(-c3cc(OC)cc(OC)c3)c(NC(=O)NC(C)(C)C)nc2n1
- % of control [11]: 100%
